# Results taken from patent US20220096597A1, “CARDIO-PROTECTIVE EFFECT OF VASOCONSTRICTION-INHIBITING FACTOR (VIF)” (Rheinisch-Westfälische Technische Hochschule Aachen (RWTH), priority 2019, published 2022).
# Ends that are not written are not given here.
# Tested on: C57BL/6N mice with induced myocardial infarction
# Assay: Histology and immunohistochemistry of hearts after induced infarction
# Assay type: in vivo
# Settings: infarcted mouse heart, up to 28 days; FIG. 6A and 6C
# Procedure: To further study the newly identified effects of VIF (according to SEQ ID NO: 1), and especially in vivo, 8 to 10 week old wild type male C57BL/6N mice (Charles River, Germany) were intubated under anesthesia (100 mg/kg ketamine, 10 mg/kg xylazine, i.p.) and analgesia (0.1 mg/kg buprenorphine). The mice were ventilated with positive pressure and oxygenation using a rodent respirator (Harvard Apparatus, Germany). […]
# A Gömöri trichrome staining was performed to determine the infarct size. Subsequently, three slices per mouse from 3 to 5 different mice were analyzed using ImageJ. after one of anti-SMA antibody (smooth muscle actin, DAKO, FIG. 6D), anti-MAC3 antibody (BD Pharmingen, FIG. 6B), anti-MPO antibody (Neomarkers, FIG. 6A) and anti-CD31 antibody (Santa Cruz Biotechnology, FIG. 6E) staining, followed by staining with fluorescein isothiocyanate (FITC)—or a Cy3-conjugated secondary antibody (DAKO, Germany). Positively stained cells or double-positive stained cells (FIG. 6C for anti-MAC3/MPO) were counted in three different fields per slice and expressed as cells per field of view (200× magnification).
sequence,measurement,value
HSGFEDELSEVLENQSSQAELKEAVEEPSSKDVME [VIF],infiltration of neutrophils (anti-MPO) compared to non-treated controls,does not lead to an increased infiltration of neutrophils
